Values quoted from earlier work in patent publication US20080287669A1, “METHODS AND COMPOSITIONS FOR IDENTIFYING COMPOUNDS USEFUL IN NUCLEIC ACID PURIFICATION” (priority 2007, published 2008).
Structures can show the parent of a compound that is named as a salt.

details: not given

SMILES	Dielectric Constant (DC)
O=C(O)C(Cl)(Cl)Cl [trichloroacetic acid]	4.6
NC=O [formamide]	111
C[S+](C)[O-] [dimethylsulfoxide]	38

same assay, conditions: Table 1, soluble organic solvents

SMILES	Dielectric Constant (DC)
O=Cc1ccco1 [furfural]	42.1
Cc1cc(C)cc(O)c1 [3,5-xylenol]	9.06
CCOC(C)=O [ethyl acetate]	6.08
CCOP(=O)(OCC)OCC [triethyl phosphate]	13.2
OCCCCCO [1,5-pentanediol]	26.2
OCc1ccccc1 [benzyl alcohol]	11.92
CCOC=O [ethyl formate]	8.57
CCCCC(=O)O [pentanoic acid]	2.66
O=C1CCCCC1 [cyclohexanone]	16.1
S=C=S [carbon disulfide]	2.63
NC1CCCCC1 [cyclohexylamine]	4.55
CCC=O [propanal]	18.5
Cc1ccc(C)c(O)c1 [2,5-xylenol]	5.36
CCCNCCC [dipropylamine]	3.07
CCCC=O [butanal]	13.45
FC(F)(Cl)Cl [dichlorodifluoromethane]	3.5
CC1CCCO1 (stereo not shown) [2-methyl-tetrahydrofuran]	6.97
Brc1cccc2ccccc12 [1-bromonaphthalene]	4.77
CC(=O)C=C(C)C [mesityl oxide]	15.6
C[N+](=O)[O-] [nitromethane]	37.27
CCCCNCCCC [dibutylamine]	2.77
COC [dimethylether]	6.18
Cc1ccccc1O [o-cresol]	6.76

same assay, conditions: Table 2, very soluble organic solvents

SMILES	Dielectric Constant (DC)
CCOCCOC(C)=O [ethylene glycol ethylether acetate]	7.57
COC(C)=O [methylacetate]	7.07
Cc1ccnc(C)c1 [2,4-lutidine]	9.6
CCC(=O)CC [diethylketone]	17
CCOC(=O)CC(C)=O [ethylacetoacetate]	14
CC(N)=O [acetamide]	67.6
COCCOC(C)=O [ethylene glycol monomethylether acetate]	8.25
CN(C)C [trimethylamine]	2.44
CCOCCOCCOCC [diethylene glycol diethyl ether]	5.7
Cc1ccccn1 [2-picoline]	10.18
CC1COC(=O)O1 (stereo not shown) [propylene carbonate]	66.14
OCCCCC(O)CO (stereo not shown) [1,2,6-hexanetriol]	31.5
CCCCCC(C)=O [methyl pentyl ketone]	11.95
CCCC(C)O (stereo not shown) [2-pentanol]	13.71
FC(F)Cl [chlorodifluoromethane]	6.11
CN1CCCC1=O [N-methyl-2-pyrrolidone]	32.2
CC(=O)OC(C)=O [acetic anhydride]	22.45

same assay, conditions: Table 3, miscible organic solvents

SMILES	Dielectric Constant (DC)
CC(=O)O [acetic acid]	6.2
C1CCNC1 [pyrrolidine]	8.3
CC(O)CO (stereo not shown) [1,2-propanediol]	27.5
CCN [ethylamine]	8.7
OCc1ccco1 [furfuryl alcohol]	16.85
OCCOCCOCCO [triethyleneglycol]	23.69
NCCNCCN [diethylenetriamine]	12.62
CCCC(=O)O [butanoic acid]	2.98
CCC(=O)O [propanoic acid]	3.44
C1CCOC1 [tetrahydrofuran]	7.52
CCCCOCCO [ethyleneglycol monobutyl ether]	9.3
CCCCCN [pentylamine]	4.27
CCO [ethanol, reference compound]	25.3
O=S1(=O)CCCC1 [sulfolane]	43.26
Cc1ccncc1 [4-picoline]	12.2
CC(C)O [2-propanol]	20.18
Cc1cccc(C)n1 [2,6-lutidine]	7.33
NCCO [ethanolamine]	31.94
CC=O [acetaldehyde]	21
CCCCN [butylamine]	4.71
OCC(O)CO [glycerol]	46.53
CC(=O)CC(C)(C)O [diacetone alcohol]	18.2
C[S+](C)[O-] [dimethylsulfoxide]	47.24
C1COCCN1 [morpholine]	7.42
CC(O)CCO (stereo not shown) [1,3-butanediol]	28.8
C=CCO [allyl alcohol]	19.7
OCCCO [1,3-propanediol]	35.1
Cc1cccnc1 [3-picoline]	11.1
CC(C)CN [isobutylamine]	4.43

same assay, conditions: Table 4, exemplary solvents

SMILES	Dielectric Constant
C1CCOC1 [tetrahydrofuran]	7.52
CCO [ethanol, reference compound]	25.3
O=S1(=O)CCCC1 [sulfolane]	43.26
C[S+](C)[O-] [dimethylsulfoxide]	47.2
